Patent publication US4229435A, “Preparation of blood fraction” (priority 1978, dated 1980)

Assays:
Format in all cases: biochemical
Conditions in all cases: 5 min 37° C., then iodoacetic acid
F IX = biological target: T1, F IX (Homo sapiens, UniProt P00740); experiment: Coagulation factor IX activity in plasma after reducing agent + iodoacetic acid
T1 construct: from tissue; host or cells: human citrated blood plasma
Procedure: (§1) Human blood with anti-coagulating agent (9 parts blood+1 part 3.8% trisodium citrate) is centrifuged and the following tests with plasma were carried out:
(§2) The plasma is divided into 8 ml portions, which are preheated at 37° C. for 5 min. DTT is added in different concentrations, see table 1 below, and is incubated for 5 min. at 37° C. Then iodoacetic acid, 3 mol per mol DTT, is added, and incubation takes place for 15 min. at 37° C. The plasma samples are distributed in portions of about 0.2 ml and are immediately frozen at -70° C. Testing of different coagulation factors is made in known manner.
(§3) The plasma is divided into 8 ml portions, which are preheated at 37° C. for 5 min. DTE is added in different concentrations (see table 2), and is incubated for 5 minutes at 37° C. Then, iodoacetic acid (3 mol per mol DTE) is added and incubation is carried out for 15 minutes at 37° C. The plasma samples are distributed in portions of about 0.2 ml and are immediately frozen at -70° C. Testing of different coagulation factors is made in a manner known per se.
as §3, with “minutes. Lipoic acid” for “min. DTE”, “3),” for “2),”, “lipoic acid)” for “DTE)”
as §3, with “minutes. Mercaptoethanol” for “min. DTE”, “4),” for “2),”, “mercaptoethanol)” for “DTE)”
as §3, with “minutes. Potassium borohydride” for “min. DTE”, “5,” for “2),”, “potassium borohydride)” for “DTE)”

F VII = biological target: T2, F VII (Homo sapiens, UniProt P08709); experiment: Coagulation factor VII activity in plasma after reducing agent + iodoacetic acid
T2 construct: from tissue; host or cells: human citrated blood plasma
T2 sequence (P08709 61-466): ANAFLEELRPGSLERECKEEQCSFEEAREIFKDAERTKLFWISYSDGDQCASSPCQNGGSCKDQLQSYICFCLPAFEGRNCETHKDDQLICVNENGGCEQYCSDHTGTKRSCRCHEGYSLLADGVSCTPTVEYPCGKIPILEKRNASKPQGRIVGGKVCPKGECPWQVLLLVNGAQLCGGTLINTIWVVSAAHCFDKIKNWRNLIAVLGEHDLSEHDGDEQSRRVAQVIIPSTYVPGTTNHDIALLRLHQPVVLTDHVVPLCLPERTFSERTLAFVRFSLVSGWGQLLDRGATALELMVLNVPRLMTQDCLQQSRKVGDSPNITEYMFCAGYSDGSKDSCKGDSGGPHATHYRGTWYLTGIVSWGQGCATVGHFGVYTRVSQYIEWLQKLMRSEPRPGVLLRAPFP
Procedure: as §1, §2, §3
as §3, with “minutes. Lipoic acid” for “min. DTE”, “3),” for “2),”, “lipoic acid)” for “DTE)”
as §3, with “minutes. Mercaptoethanol” for “min. DTE”, “4),” for “2),”, “mercaptoethanol)” for “DTE)”
as §3, with “minutes. Potassium borohydride” for “min. DTE”, “5,” for “2),”, “potassium borohydride)” for “DTE)”

F V = biological target: T3, F V (Homo sapiens, UniProt P12259); experiment: Coagulation factor V activity in plasma after reducing agent + iodoacetic acid
T3 construct: from tissue; host or cells: human citrated blood plasma
T3 sequence (P12259 29-2224): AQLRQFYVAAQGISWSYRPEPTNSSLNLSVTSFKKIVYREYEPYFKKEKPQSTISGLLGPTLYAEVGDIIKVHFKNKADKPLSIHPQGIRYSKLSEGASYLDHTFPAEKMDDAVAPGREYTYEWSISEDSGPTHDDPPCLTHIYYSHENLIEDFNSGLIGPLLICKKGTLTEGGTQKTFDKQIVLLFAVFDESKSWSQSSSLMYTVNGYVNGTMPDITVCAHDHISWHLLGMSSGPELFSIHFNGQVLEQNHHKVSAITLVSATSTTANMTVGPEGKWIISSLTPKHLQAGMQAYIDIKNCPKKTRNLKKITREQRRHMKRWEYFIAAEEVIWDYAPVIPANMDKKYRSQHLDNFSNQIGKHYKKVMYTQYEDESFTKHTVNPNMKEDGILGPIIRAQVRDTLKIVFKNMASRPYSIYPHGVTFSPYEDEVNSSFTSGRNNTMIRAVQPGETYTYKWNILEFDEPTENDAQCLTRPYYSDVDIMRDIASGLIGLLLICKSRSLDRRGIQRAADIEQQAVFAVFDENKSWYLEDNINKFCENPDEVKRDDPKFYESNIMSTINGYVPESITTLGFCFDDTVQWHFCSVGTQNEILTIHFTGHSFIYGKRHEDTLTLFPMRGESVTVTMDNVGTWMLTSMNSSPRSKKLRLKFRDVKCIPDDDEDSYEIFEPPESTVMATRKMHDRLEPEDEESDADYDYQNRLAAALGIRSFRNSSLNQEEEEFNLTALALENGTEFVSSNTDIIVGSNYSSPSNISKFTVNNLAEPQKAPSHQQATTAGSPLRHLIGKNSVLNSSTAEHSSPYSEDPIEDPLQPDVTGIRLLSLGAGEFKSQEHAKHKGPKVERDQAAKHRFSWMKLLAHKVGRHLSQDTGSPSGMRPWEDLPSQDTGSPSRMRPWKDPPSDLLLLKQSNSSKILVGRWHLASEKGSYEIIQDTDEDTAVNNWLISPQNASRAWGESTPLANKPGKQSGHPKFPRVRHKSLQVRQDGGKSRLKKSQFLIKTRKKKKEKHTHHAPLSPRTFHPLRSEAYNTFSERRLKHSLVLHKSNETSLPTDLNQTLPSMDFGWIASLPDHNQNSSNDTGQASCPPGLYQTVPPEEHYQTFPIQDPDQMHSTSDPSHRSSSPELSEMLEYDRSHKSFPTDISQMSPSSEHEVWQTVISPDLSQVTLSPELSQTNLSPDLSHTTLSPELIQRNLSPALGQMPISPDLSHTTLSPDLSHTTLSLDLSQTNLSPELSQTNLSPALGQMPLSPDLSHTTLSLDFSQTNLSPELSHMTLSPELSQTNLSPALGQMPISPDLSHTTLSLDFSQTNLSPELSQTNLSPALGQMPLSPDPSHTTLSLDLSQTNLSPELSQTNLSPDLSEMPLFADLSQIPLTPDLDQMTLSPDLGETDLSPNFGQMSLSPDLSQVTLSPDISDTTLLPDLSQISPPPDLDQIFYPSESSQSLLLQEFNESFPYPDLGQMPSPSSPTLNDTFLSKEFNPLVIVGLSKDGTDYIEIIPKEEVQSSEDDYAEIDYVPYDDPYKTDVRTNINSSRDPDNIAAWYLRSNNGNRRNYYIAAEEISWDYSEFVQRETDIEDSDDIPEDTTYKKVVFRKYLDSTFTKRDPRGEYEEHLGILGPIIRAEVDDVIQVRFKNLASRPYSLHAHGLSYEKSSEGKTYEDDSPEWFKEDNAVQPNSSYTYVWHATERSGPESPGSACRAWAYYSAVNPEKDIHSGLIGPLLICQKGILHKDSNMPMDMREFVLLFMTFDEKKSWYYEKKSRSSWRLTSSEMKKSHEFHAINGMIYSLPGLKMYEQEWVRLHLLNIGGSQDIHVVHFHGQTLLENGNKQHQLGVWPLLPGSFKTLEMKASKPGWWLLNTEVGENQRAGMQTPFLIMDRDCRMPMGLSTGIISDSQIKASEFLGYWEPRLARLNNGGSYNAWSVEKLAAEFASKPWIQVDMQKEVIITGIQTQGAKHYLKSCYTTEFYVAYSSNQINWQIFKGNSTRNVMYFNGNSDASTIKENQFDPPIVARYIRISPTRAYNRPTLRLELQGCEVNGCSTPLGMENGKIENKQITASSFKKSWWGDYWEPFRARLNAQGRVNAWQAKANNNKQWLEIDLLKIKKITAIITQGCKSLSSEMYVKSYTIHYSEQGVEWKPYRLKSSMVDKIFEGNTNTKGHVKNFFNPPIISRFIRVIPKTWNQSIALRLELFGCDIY
Procedure: as §1, §2, §3
as §3, with “minutes. Lipoic acid” for “min. DTE”, “3),” for “2),”, “lipoic acid)” for “DTE)”
as §3, with “minutes. Mercaptoethanol” for “min. DTE”, “4),” for “2),”, “mercaptoethanol)” for “DTE)”
as §3, with “minutes. Potassium borohydride” for “min. DTE”, “5,” for “2),”, “potassium borohydride)” for “DTE)”

F XI = biological target: T4, F XI (Homo sapiens, UniProt P03951); experiment: Coagulation factor XI activity in plasma after reducing agent + iodoacetic acid
T4 construct: from tissue; host or cells: human citrated blood plasma
T4 sequence (P03951 19-625): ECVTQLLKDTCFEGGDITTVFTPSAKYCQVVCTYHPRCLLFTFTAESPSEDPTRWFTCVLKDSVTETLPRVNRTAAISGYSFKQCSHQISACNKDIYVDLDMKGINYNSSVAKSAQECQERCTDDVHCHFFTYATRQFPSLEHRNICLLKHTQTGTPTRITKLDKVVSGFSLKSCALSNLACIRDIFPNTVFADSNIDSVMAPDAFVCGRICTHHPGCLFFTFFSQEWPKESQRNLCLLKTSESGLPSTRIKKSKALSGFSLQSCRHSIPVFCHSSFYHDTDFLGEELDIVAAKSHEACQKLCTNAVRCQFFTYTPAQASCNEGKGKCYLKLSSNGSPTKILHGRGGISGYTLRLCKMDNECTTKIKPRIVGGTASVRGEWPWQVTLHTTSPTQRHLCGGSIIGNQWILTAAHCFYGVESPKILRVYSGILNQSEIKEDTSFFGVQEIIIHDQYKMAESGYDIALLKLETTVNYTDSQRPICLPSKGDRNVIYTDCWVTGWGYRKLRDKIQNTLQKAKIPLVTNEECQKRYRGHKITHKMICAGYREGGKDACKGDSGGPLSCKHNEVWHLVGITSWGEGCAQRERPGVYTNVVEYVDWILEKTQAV
Procedure: as §1, §2, §3
as §3, with “minutes. Lipoic acid” for “min. DTE”, “3),” for “2),”, “lipoic acid)” for “DTE)”
as §3, with “minutes. Mercaptoethanol” for “min. DTE”, “4),” for “2),”, “mercaptoethanol)” for “DTE)”
as §3, with “minutes. Potassium borohydride” for “min. DTE”, “5,” for “2),”, “potassium borohydride)” for “DTE)”

F X = biological target: T5, F X (Homo sapiens, UniProt P00742); experiment: Coagulation factor X activity in plasma after reducing agent + iodoacetic acid
T5 construct: from tissue; host or cells: human citrated blood plasma
T5 sequence (P00742 235-488 limits assumed): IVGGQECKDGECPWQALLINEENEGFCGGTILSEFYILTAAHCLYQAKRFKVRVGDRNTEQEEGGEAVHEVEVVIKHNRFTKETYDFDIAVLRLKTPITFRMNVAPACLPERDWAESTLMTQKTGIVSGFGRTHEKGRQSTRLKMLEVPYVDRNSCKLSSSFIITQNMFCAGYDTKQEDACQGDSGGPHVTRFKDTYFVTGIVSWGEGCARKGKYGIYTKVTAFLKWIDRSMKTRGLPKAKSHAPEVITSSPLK
T5 sequence (P00742 41-179 limits assumed): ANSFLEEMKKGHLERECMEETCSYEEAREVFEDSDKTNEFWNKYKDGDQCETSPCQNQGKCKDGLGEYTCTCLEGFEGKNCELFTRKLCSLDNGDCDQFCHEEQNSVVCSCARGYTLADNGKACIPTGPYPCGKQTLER
Procedure: as §1, §2, §3
as §3, with “minutes. Lipoic acid” for “min. DTE”, “3),” for “2),”, “lipoic acid)” for “DTE)”
as §3, with “minutes. Mercaptoethanol” for “min. DTE”, “4),” for “2),”, “mercaptoethanol)” for “DTE)”
as §3, with “minutes. Potassium borohydride” for “min. DTE”, “5,” for “2),”, “potassium borohydride)” for “DTE)”

[1] = plasma + 0.14 mg reducing agent
[2] = plasma + 0.28 mg reducing agent
[3] = human, 0.1 mg reducing agent/ml plasma (sample C)
[4] = human, 0.6 mg reducing agent/ml plasma
[5] = human, Table 1 sample D, 0.1 mg DTT/ml plasma
[6] = 0.1 mg reducing agent/ml plasma (sample C)

T1 sequence (P00740 47-461): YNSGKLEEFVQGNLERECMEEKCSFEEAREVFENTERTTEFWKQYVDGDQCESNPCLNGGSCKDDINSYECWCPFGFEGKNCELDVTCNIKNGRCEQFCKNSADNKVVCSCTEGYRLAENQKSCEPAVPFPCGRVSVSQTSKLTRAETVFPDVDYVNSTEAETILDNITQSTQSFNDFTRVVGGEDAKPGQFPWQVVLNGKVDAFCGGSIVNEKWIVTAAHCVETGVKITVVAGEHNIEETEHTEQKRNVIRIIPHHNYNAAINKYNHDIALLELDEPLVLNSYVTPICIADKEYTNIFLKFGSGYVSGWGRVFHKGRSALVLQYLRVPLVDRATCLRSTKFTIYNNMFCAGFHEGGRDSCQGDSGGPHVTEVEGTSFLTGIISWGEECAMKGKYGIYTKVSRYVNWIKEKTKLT

activity at 100 µg/mL (F IX; [3]) [%] | Coagulation factor F IX (F IX; plasma + 0.4 mg reducing agent) | activity at 100 µg/mL (F VII; [3]) [%] | Coagulation factor F VII (F VII; plasma + 0.4 mg reducing agent) | Coagulation factor F V (F V; [6]) | Coagulation factor F V (F V; plasma + 0.4 mg reducing agent) | activity at 100 µg/mL (F XI; [3]) [%] | Coagulation factor F XI (F XI; plasma + 0.4 mg reducing agent) | activity at 100 µg/mL (F X; [3]) [%] | Coagulation factor F X (F X; plasma + 0.4 mg reducing agent) | Coagulation factor F IX (F IX; plasma + 0.2 mg reducing agent) | Coagulation factor F VII (F VII; plasma + 0.2 mg reducing agent) | Coagulation factor F V (F V; plasma + 0.2 mg reducing agent) | Coagulation factor F XI (F XI; plasma + 0.2 mg reducing agent) | Coagulation factor F X (F X; plasma + 0.2 mg reducing agent) | Compound | further results
 | 35 % of control |  | 29 % of control |  | 84 % of control |  | 62 % of control |  | 37 % of control | 33 % of control | 69 % of control | 61 % of control | 74 % of control | 75 % of control | OCCS [mercaptoethanol] | 
58 | 58 % of control | 252 | 285 % of control | 100 % of control | 215 % of control | 67 | 39 % of control | 40 | 32 % of control | 52 % of control | 203 % of control | 91 % of control | 32 % of control | 26 % of control | O=C(O)CCCCC1CCSS1 (stereo not shown) [lipoic acid] | 

Further lines, the compound ahead of its results:

Compound | activity at 100 µg/mL (F IX; [3]) [%] | Coagulation factor F IX (F IX; plasma + 0.4 mg reducing agent) | activity at 100 µg/mL (F VII; [3]) [%] | Coagulation factor F VII (F VII; plasma + 0.4 mg reducing agent) | Coagulation factor F V (F V; [6]) | Coagulation factor F V (F V; plasma + 0.4 mg reducing agent) | activity at 100 µg/mL (F XI; [3]) [%] | Coagulation factor F XI (F XI; plasma + 0.4 mg reducing agent) | activity at 100 µg/mL (F X; [3]) [%] | Coagulation factor F X (F X; plasma + 0.4 mg reducing agent) | Coagulation factor F IX (F IX; plasma + 0.2 mg reducing agent) | Coagulation factor F VII (F VII; plasma + 0.2 mg reducing agent) | Coagulation factor F V (F V; plasma + 0.2 mg reducing agent) | Coagulation factor F XI (F XI; plasma + 0.2 mg reducing agent) | Coagulation factor F X (F X; plasma + 0.2 mg reducing agent) | further results
[BH4-].[K+] [KBH4, potassium borohydride] |  |  |  |  |  |  |  |  |  |  |  |  |  |  |  | Coagulation factor F IX (F IX; [1]): 77 % of control; Coagulation factor F IX (F IX; [2]): 71 % of control; Coagulation factor F VII (F VII; [1]): 131 % of control; Coagulation factor F VII (F VII; [2]): 127 % of control; Coagulation factor F V (F V; [1]): 74 % of control; Coagulation factor F V (F V; [2]): 93 % of control; Coagulation factor F XI (F XI; [1]): 94 % of control; Coagulation factor F XI (F XI; [2]): 107 % of control; Coagulation factor F X (F X; [1]): 86 % of control; Coagulation factor F X (F X; [2]): 68 % of control
O[C@H](CS)[C@H](O)CS [DTT, dithiothreitol] | 129 | 8 % of control | 87 | 6 % of control | 94 % of control | 85 % of control | 47 | 0 % of control | 59 | 0 % of control |  |  |  |  |  | activity at 600 µg/mL (F IX; [4]): 0%; activity at 100 µg/mL (F IX; [5]): 16%; activity at 600 µg/mL (F VII; [4]): 0%; activity at 100 µg/mL (F VII; [5]): 21%; Coagulation factor F V (F V; 0.6 mg reducing agent/ml plasma): 90 % of control; Coagulation factor F V (F V; Table 1 sample D, 0.1 mg DTT/ml plasma): 90 % of control; activity at 600 µg/mL (F XI; [4]): 0%; activity at 100 µg/mL (F XI; [5]): 9%; activity at 600 µg/mL (F X; [4]): 0%; activity at 100 µg/mL (F X; [5]): 6%
O[C@H](CS)[C@@H](O)CS [DTE, dithioerythritol] | 61 | 19 % of control | 61 | 48 % of control | 99 % of control | 90 % of control | 66 | 0 % of control | 56 | 2 % of control | 28 % of control | 30 % of control | 99 % of control | 3 % of control | 11 % of control | 
